Test results published in patent US8680095B2, “Heterocycle compounds and uses thereof for the prevention or treatment of diseases involving formation of amyloid plaques and/or where a dysfunction of the APP metabolism occurs” (Institut National de la Sante et de la Recherche Medicale …, priority 2009, dated 2014).
Like-named read-outs stand apart in the source and are kept apart here.

Experiments:
β-amyloid 1-42 = assay: Innotest β-amyloid 1-42 ELISA on SY5Y culture medium; format: cell-based; details: Homo sapiens, 24 h, compared to a control with a value of 100, read-out: Aβ 1 μM*
Procedure: (§1) The human neuroblastoma cell line SKNSH-SY5Y APP^wt is cultured in Dulbecco's modified Eagle medium (Invitrogen) supplemented with 10% fetal calf serum (PAA), 2 mM L-glutamine (Invitrogen), 1 mM non-essential amino acids (Invitrogen), 50 units/ml penicillin/streptomycin (Invitrogen) and 200 μg geneticin (G418; Invitrogen) (selection for cell expressing APP) in a 5% CO2 humidified incubator at 37° C. Cells are seeded into 96-wells plates (20000 cells/well) for cytotoxicity assay and 12-wells plate (300000 cells/well) for western blotting for 18 h.
(§2) For western blotting, cells are incubated with 700 μl/well of each product at 10; 3; 1 and 0.31 μM in a 5% CO2 incubator at 37° C. for 24 h. The following day, culture medium samples are collected for ELISA assay and stored at −80° C. Cells are rinsed very slowly with cold PBS, snap-frozen on dry ice and immediately stored at −80° C.
The β-amyloid 1-42 rate is quantified in SY5Y cells-culture medium by using the Innotest β-amyloid 1-42 (80324 Innogenetics®) according to the manufacturer instructions. Briefly, Fresh culture medium is used to dilute the standard. Culture samples are centrifuged at 200 g at 4° C. during 5 minutes in order to eliminate cell fragments.
First, 75 μl of the conjugate working solution1 (3D6 biotinylated antibody) is added to a 21F12 Ab precoated well. Twenty five μl of pure supernatant samples are then added to the coated well, and incubated for 1 h. Then the plate is washed 5 times with the washing buffer. Then 100 μl of peroxidase-labeled streptavidin (conjugate working solution 2) is added and incubated for 30 min at RT. After washing the plate 5 times, 100 μl of tetramethyl benzidine (substrate working solution) is added onto the plate and incubated for 30 minutes in the dark. The reaction is stopped with 50 μl 0.9N sulfuric acid (stop solution). The absorbance is read at 450 nm.
A sigmoidal curve fitting (four parameter […] curve) is used to calculate the standard curve. The corresponding concentration of β-amyloid (1-42) in pg/ml is determined from the standard curve. Results are expressed in concentration of β-amyloid in pg per μg of total proteins. Graphs and statistic analyses (t Test) are performed with Graph Pad Prism computer program (V0.5).

[1] = tested on: APP-CTFs (CTFα, AICD) in SKNSH-SY5Y APPwt cells; assay: Western blotting of APP carboxy-terminal fragments (CTFα, AICD) in treated cells; format: cell-based; details: Homo sapiens, 24 h
Procedure: as §1, §2
Cells in twelve-well plates are collected in 50 μl Laemmli Lysis Buffer (pH 6.8, 50 mM Tris Base, 2% SDS, 20% Glycerol, 1 mM sodium pyrophosphate, 1 mM sodium orthovanadate and Protease Inhibitor Cocktail Complete Mini-Roche) per well. Cells are scrapped and lysates sonicated for 5 min.
Protein content is determined using the BCA Method (Pierce). Samples containing equal amounts of protein (35 μg total protein for mice and 20 μg total protein for cells per well) are heated at 85° C. for 2 min after thawing and electrophoresed for 2.45 h at 125 V in a 16% Tricine precast gels according to the protocol supplied with the NuPAGE system (Invitrogen). After size fractionation, the proteins are transferred onto nitrocellulose 0.2 μm pore-size membranes (Invitrogen) in the blot module of the NuPAGE sytem for 1 h at room temperature (RT). Blots are blocked for 1 h in TNT with 0.05% Tween 20 and 5% nonfat milk at RT, incubated overnight at 4° C. with anti-C term APP C1:3-2429 (1:250000) primary antibody and washed four times with TNT before being exposed to peroxidase labeled anti-mouse IgG (H+L) C4 94010 (1:50000; Vector) secondary antibody for […] at 25° C. The immunoreactions are detected with SuperSignal West Pico Chemiluminescent Substrate (Thermo specific, 34077). Images are scanned with LAS-3000 Image System (Global FUJIFILM) and bands quantified by ImageJ 1.37v computer program. The different APP-CTF bands are detected as a function of their molecular mass, as described in Vingtdeux, V., Hamdane, M., Gompel, M. et al. (2005) Phosphorylation of amyloid precursor carboxy-terminal fragments enhances their processing by a gamma-secretase-dependent mechanism. Neurobiol Dis, 20, 625-637. Graphs and statistical analysis of results is performed with Graph Pad Prism (version 4.02) computer program.

APP-CTFα = assay: In vivo mice treatment, western blotting of APP-CTFs in prefrontal cortex; details: C57Bl6 female mice, 12.5, 25, 50 mg/kg intraperitoneally once, prefrontal cortex 24 h after, versus vehicle
Procedure: Test molecules are intraperitoneally injected to 4 month old C57BI6 females mice either at 12.5; 25; 50 mg/kg or vehicule once, and sacrificed 24 h after by decapitation. Brain is immediately removed and Prefrontal Cortex is dissected by using a cold zinc brain matrix. The total dissection time was <3 min from decapitation. Following dissection tissue is frozen in dry ice and then stored at −80° C. for western blotting.
Protein extracts of Prefrontal Cortex samples are prepared in 50 μl Laemmli Lysis Buffer (pH 6.8, 50 mM Tris Base, 2% SDS, 20% Glycerol, 1 mM sodium pyrophosphate, 1 mM sodium orthovanadate and Protease Inhibitor Cocktail Complete Mini-Roche) by trituration of the fragments in a 0.2 ml glass micro tissue grinder. […]
Protein content is determined using the BCA Method (Pierce). […] The immunoreactions are detected with SuperSignal West Pico Chemiluminescent Substrate (Thermo specific, 34077). Images are scanned with LAS-3000 Image System (Global FUJIFILM) and bands quantified by ImageJ 1.37v computer program. The different APP-CTF bands are detected as a function of their molecular mass, as described in Vingtdeux, V., Hamdane, M., Gompel, M. et al. (2005) Phosphorylation of amyloid precursor carboxy-terminal fragments enhances their processing by a gamma-secretase-dependent mechanism. […]

[2] = Cytotoxicity CC50 on MRC-5; format: cell-based; details: human, MRC-5 cells
[3] = compared to a control with a value of 100, read-out: CTFα 1 μM*
[4] = AICD, compared to a control with a value of 100, read-out: AlCD 1 μM*

melting point [°C] | SMILES | activity at 1 µM (β-amyloid 1-42) [%] | activity at 1 µM [1, 3] [%] | activity at 1 µM [1, 4] [%] | production of APP-CTFα (optical density, FIG. 1) (APP-CTFα) | CC50 [2] [µM]
 | CN1CCN(c2ccc(Nc3ccnc4cc(Cl)ccc34)cc2CNC(C)(C)C)CC1 [compound 56, N-{3-[(tert-butylamino)methyl]-4-(4-methylpiperazin-1-yl)phenyl}-7-chloroquinolin-4-amine] | 45 | 183 | 823 |  | 
 | CN1CCN(c2ccc(Nc3ccnc4cc(Cl)ccc34)cc2CN2CCOCC2)CC1 [compound 57, 7-chloro-N-[4-(4-methylpiperazin-1-yl)-3-(morpholin-4-ylmethyl)phenyl]quinolin-4-amine] | 19 | 194 | 757 |  | 
 | Cc1cc(Nc2ccnc3cc(Cl)ccc23)cc(CN2CCCC2)c1N1CCN(C)CC1 [compound 59, 7-Chloro-N-[3-methyl-4-(4-methylpiperazin-1-yl)-5-(pyrrolidin-1-ylmethyl)phenyl]quinolin-4-amine] | 73 | 629 | 325 |  | 
 | CN(C)CCCN1CCN(C(=O)c2cc(Nc3ccnc4cc(Cl)ccc34)cc(C(=O)N3CCN(CCCN(C)C)CC3)c2)CC1 [compound 64, N-[3,5-Bis({4-[3-(dimethylamino)propyl]piperazin-1-yl}carbonyl)phenyl]-7-chloroquinolin-4-amine] | 31 | 106 | 669 |  | 
 | Oc1c(CN2CCCC2)cc(Nc2ccnc3cc(Cl)ccc23)cc1CN1CCCC1 [compound 66, 4-[(7-Chloroquinolin-4-yl)amino]-2,6-bis (pyrrolidin-1-ylmethyl)phenol] | 19 | 754 | 886 | increases the production of APP-CTFα | 
 | COC(=O)c1cc(Nc2ccnc3cc(Cl)ccc23)cc(C(=O)N2CCN(CCCN(C)C)CC2)c1 [compound 69, Methyl 3-[(7-chloroquinolin-4-yl)amino]-5-({4-[3-(dimethylamino)propyl]piperazin-1-yl}carbonyl)benzoate] | 46 | 126 | 302 |  | 
 | CN1CCN(c2cc(Nc3ccnc4cc(Cl)ccc34)cc(N3CCN(C)CC3)c2)CC1 [compound 70, N-[3,5-bis(4-methylpiperazin-1-yl)phenyl]-7-chloroquinolin-4-amine] |  | 687 | 515 |  | 
 | CN1CCN(c2cc(O)cc(Nc3ccnc4cc(Cl)ccc34)c2)CC1 [compound 72, 3-[(7-chloroquinolin-4-yl)amino]-5-(4-methyl-piperazin-1-yl)phenol] | 100 | 105 | 80 |  | 
 | N#Cc1cc(N)cc(Nc2cc[n+](CCN3CCCCC3)c3cc(Cl)ccc23)c1 [compound 74, 4-[(3-amino-5-cyanophenyl)amino]-7-chloro-1-[2-(piperidin-1-yl)ethyl]quinolin-1-ium chloride] | 44 |  |  |  | 
 | N#Cc1cc(/N=c2\ccn(CCN3CCCCC3)c3cc(Cl)ccc23)cc(NCCN2CCCCC2)c1 [compound 76, 3-({7-Chloro-1-[2-(piperidin-1-yl)ethyl]-1,4-dihydroquinolin-4-ylidene}amino)-5-{[2-(piperidin-1-yl)ethyl]amino}benzonitrile] | 76 |  |  |  | 
 | N#Cc1cc(NCCN2CCCCC2)cc(Nc2ccnc3cc(Cl)ccc23)c1 [compound 77, 3-[(7-chloroquinolin-4-yl)amino]-5-{[2-(piperidin-1-yl)ethyl]amino}benzonitrile] | 85 |  | 618 |  | 
 | CCN(CC)Cc1cc(Nc2ccnc3cc(Cl)ccc23)ccc1F [compound 84, 7-chloro-N-(3-((diethylamino)methyl)-4-fluorophenyl)quinolin-4-amine] |  | 358 | 209 |  | < 10
187 to 188 | Clc1ccc2c(Nc3ccc(N4CCOCC4)c(CN4CCCC4)c3)ccnc2c1 [compound 86, 7-chloro-N-[4-(morpholin-4-yl)-3-(pyrrolidin-1-ylmethyl)phenyl]quinolin-4-amine] |  |  |  |  | 
